Assay results published in patent US6451548B1, “Methods for screening for specific inhibitors of trap and identifying compounds for treatment of diseases or conditions resulting in increased bone resorption using activated TRAP” (Biovitrum AB, priority 1998, dated 2002).
Like-named read-outs stand apart in the source and are kept apart here. Where no end group is shown, it is not given here. [ ]: non-standard residue; d: D form. pY = N[C@@H](Cc1ccc(OP(=O)(O)O)cc1)C(=O)O; pT = C[C@@H](OP(=O)(O)O)[C@H](N)C(=O)O; pS = N[C@@H](COP(=O)(O)O)C(=O)O

How the values were obtained:
[1] = target: T1, recombinant rat TRAP produced using Baculovirus expression system (BacTRAP) (Rattus norvegicus, UniProt P29288); experiment: Substrate specificity of recombinant TRAP (phosphatase assay); assay type: biochemical
T1 construct: made in house
T1 sequence (P29288 23-327): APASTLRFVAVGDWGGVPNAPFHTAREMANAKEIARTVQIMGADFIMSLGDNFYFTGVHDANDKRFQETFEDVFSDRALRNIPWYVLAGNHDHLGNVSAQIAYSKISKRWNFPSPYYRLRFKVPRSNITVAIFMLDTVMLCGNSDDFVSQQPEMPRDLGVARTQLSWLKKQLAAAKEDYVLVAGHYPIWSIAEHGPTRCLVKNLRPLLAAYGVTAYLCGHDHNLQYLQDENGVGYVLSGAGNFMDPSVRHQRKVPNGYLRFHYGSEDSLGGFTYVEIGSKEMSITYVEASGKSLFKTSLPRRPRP
Procedure: (§1) The substrates were dissolved in incubation medium containing the same buffer as in the pNPP-assay. […] A phosphate standard curve […] was always run in parallel. […] In order to validate whether the structural alterations induced by proteolytic cleavage of the monomeric TRAP was generally affecting known substrates for TRAP and not restricted to the non-physiological substrate pNPP, we surveyed a number of different phosphoaminoacids, phosphopeptides and the phosphoprotein osteopontin as substrates for the TRAPs (See Table II).

[2] = target: T2, TRAP isolated from rat bone (BoneTRAP) (Rattus norvegicus, UniProt P29288); experiment: Substrate specificity of bone TRAP (phosphatase assay); assay type: biochemical; settings: for Ratio Bone/Bac: Kcat/Km BoneTRAP over BacTRAP
T2 construct: from tissue; host or cells: long bones of 3 week old Sprague Dawley rats
T2 sequence (P29288 23-327): T1 sequence (P29288 23-327)
T2 sequence (P29288 184-327): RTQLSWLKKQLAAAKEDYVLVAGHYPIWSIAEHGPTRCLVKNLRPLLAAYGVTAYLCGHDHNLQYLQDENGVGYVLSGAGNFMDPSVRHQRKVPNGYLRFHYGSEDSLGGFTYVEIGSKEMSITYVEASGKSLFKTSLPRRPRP
Procedure: as §1

BoneTRAP = target: T3, BoneTRAP (Rattus norvegicus, UniProt P29288); experiment: pNPP hydrolysis by bone TRAP; assay type: biochemical; settings: BoneTRAP untreated
T3 construct: from tissue; host or cells: long bones of 3 week old Sprague Dawley rats
T3 sequence (P29288 23-327): T1 sequence (P29288 23-327)
T3 sequence (P29288 184-327): T2 sequence (P29288 184-327)
Procedure: Bone TRAP was purified from the long bones of 40 3 week old Sprague Dawley rats. All operations were performed at 4° C. The dissected bones, free from soft tissue, were cut into small pieces and placed in homogenization solution with protease inhibitors (3 ml/g bone); 0.15 M KCl, 0.1% Triton X-100, Pefabloc (1 mg/ml), Pepstatin A (10 μg/ml), E-64 (10 μg/ml) and 5 mM EDTA. A Polytron homogenizer (Brinkman Instruments Westbury, N.Y.) was used for homogenization during 10 seconds, with 1 minute intervals, until a homogenous suspension was achieved. The homogenate was cleared by centrifugation at 3,200×g for 30 min. 5 % protamine sulfate was added dropwise to the supernatant during continous stirring to a final concentration of 0.5%, with further stirring for 30 min. […]
P-nitrophenylphosphosphatase activity was assayed in 96-well plates using the p-nitrophenylphosphate (pNPP) as substrate in the incubation medium (150 μl) containing (final concentrations); 10 mM pNPP, 0.1 M sodium acetate pH 5.8, 0.15 M KCl, 0.1% Triton X-100, 10 mM sodium tartrate, 1 mM ascorbic acid and 0.1 mM FeCl3. The p-nitrophenol liberated after 1 hour of incubation at 37° C. was converted into p-nitrophenylate by the addition of 100 μl of 0.3 M NaOH, and the absorbance was read at 405 nm. For absorbance reading a Spectramax 250 spectrophotometer (Molecular Devices, Sunnyvale, Calif.) was used. […]

BacTRAP + Cath. B = experiment: pNPP hydrolysis by cathepsin B-digested recombinant TRAP; assay type: biochemical, rat
Procedure: (§2) P-nitrophenylphosphosphatase activity was assayed in 96-well plates using the p-nitrophenylphosphate (pNPP) as substrate in the incubation medium (150 μl) containing (final concentrations); 10 mM pNPP, 0.1 M sodium acetate pH 5.8, 0.15 M KCl, 0.1% Triton X-100, 10 mM sodium tartrate, 1 mM ascorbic acid and 0.1 mM FeCl3. The p-nitrophenol liberated after 1 hour of incubation at 37° C. was converted into p-nitrophenylate by the addition of 100 μl of 0.3 M NaOH, and the absorbance was read at 405 nm. For absorbance reading a Spectramax 250 spectrophotometer (Molecular Devices, Sunnyvale, Calif.) was used.
1 U of p-nitrophenylphosphatase activity corresponds to 1 μmole of p-nitrophenol liberated per minute at 37° C. […] The substrates were dissolved in incubation medium containing the same buffer as in the pNPP-assay. After 1 hour of incubation (final volume 50 μl) at 37° C. the assay was stopped by addition of 50 μl of color reagens (0.12% Malachite-green in 3 M H2SO4/7.5% ammomium molybdate/11% Tween-20; 10:2.5:0.2). […] After color development for 10 min the absorbance at 630 nm was measured using a Spectramax 250 spectrophotometer.
(§3) Incubation was performed at room temperature for 1 h with the suspension kept well mixed during the reaction period. The proteolytic digestions above were stopped by centrifugation and the cleavage products of TRAP in the supernatant were further analyzed. […]

BacTRAP + trypsin = experiment: pNPP hydrolysis by trypsin-digested recombinant TRAP; assay type: biochemical, rat
Procedure: as §2
1 U of p-nitrophenylphosphatase activity corresponds to 1 μmole of p-nitrophenol liberated per minute at 37° C. […] The substrates were dissolved in incubation medium containing the same buffer as in the pNPP-assay. After 1 hour of incubation (final volume 50 μl) at 37° C. the assay was stopped by addition of 50 μl of color reagens (0.12% Malachite-green in 3 M H2SO4/7.5% ammomium molybdate/11% Tween-20; 10:2.5:0.2). […] After color development for 10 min the absorbance at 630 nm was measured using a Spectramax 250 spectrophotometer. […]
as §3

BacTRAP + papain = target: T4, BacTRAP + papain (Rattus norvegicus, UniProt P29288); experiment: pNPP hydrolysis by papain-digested recombinant TRAP; assay type: biochemical
T4 construct: made in house; host or cells: recombinant Baculovirus-infected cells; then digested with papain-agarose
T4 sequence (P29288 23-327): T1 sequence (P29288 23-327)
T4 sequence (P29288 184-327): T2 sequence (P29288 184-327)
Procedure: as §2
(§4) 1 U of p-nitrophenylphosphatase activity corresponds to 1 μmole of p-nitrophenol liberated per minute at 37° C. […] The substrates were dissolved in incubation medium containing the same buffer as in the pNPP-assay. After 1 hour of incubation (final volume 50 μl) at 37° C. the assay was stopped by addition of 50 μl of color reagens (0.12% Malachite-green in 3 M H2SO4/7.5% ammomium molybdate/11% Tween-20; 10:2.5:0.2). A phosphate standard curve […] was always run in parallel. After color development for 10 min the absorbance at 630 nm was measured using a Spectramax 250 spectrophotometer.
Proteolytic Digestion of TRAP 25 μg baculoTRAP or bone TRAP were digested with […] papain-agarose in 500 μl of incubation solution; 10 mM sodium acetate, pH 4.6, 0.1% Triton X-100 and 2 mM DTT. Incubation was performed at room temperature for 24 h, with constant mixing of the gel. 25 μg baculo TRAP or bone TRAP were digested with 100 μl (5units) trypsin-agarose in 500 μl of incubation solution; 10 mM Tris pH 7.0 and 0.1% Triton X-100.
Incubation was performed at room temperature for 1 h with the suspension kept well mixed during the reaction period. The proteolytic digestions above were stopped by centrifugation and the cleavage products of TRAP in the supernatant were further analyzed. Digestion of baculo TRAP or bone TRAP with cathepsin B were performed at (final concentrations); 10 ng TRAP/μl, 0.4 mU cathepsin B/μl, 2 mM DTT, 50 mM sodium acetate and 1 mM EDTA, pH 5.5. The incubations were performed at 37° C. for 24 h and digestions were stopped with protease inhibitor cocktail Complete according to the instructions of the manufacturer.

[3] = target: T5, recombinant rat TRAP (BacTRAP) (Rattus norvegicus, UniProt P29288); experiment: pNPP hydrolysis by untreated recombinant TRAP; assay type: biochemical
T5 construct: made in house
T5 sequence (P29288 23-327): T1 sequence (P29288 23-327)
Procedure: as §2, §4

rat bone TRAP = target: T6, rat bone TRAP (Rattus norvegicus, UniProt P29288); experiment: Preincubation with reducing agents, bone TRAP; assay type: biochemical
T6 construct: from tissue; host or cells: long bones of 3 week old Sprague Dawley rats
T6 sequence (P29288 23-327): T1 sequence (P29288 23-327)
T6 sequence (P29288 184-327): T2 sequence (P29288 184-327)
Procedure: as §2
(§5) c) BaculoTRAP digested with papain or trypsin were compared with undigested baculoTRAP and bone TRAP. Ascorbic acid and FeCl3 were used as reducing agents during preincubation of TRAP for indicated time intervals in a total volume of 70 μl with (final concentrations); 1 mM ascorbic acid, 0.1 mM FeCl3, 0.15 M KCl, 10 mM sodium tartrate, 0.1% Triton X-100. Except for a substrate incubation time of 10 min, TRAP activity was measured after the addition of 80 μl of substrate solution as described under Materials and Methods.

[4] = target: T7, intact recombinant TRAP (baculoTRAP) (Rattus norvegicus, UniProt P29288); experiment: Preincubation with reducing agents, intact recombinant TRAP; assay type: biochemical; settings: ascorbate 1 mM in the presence of 0.1 mM FeCl3
T7 construct: made in house
T7 sequence (P29288 23-327): T1 sequence (P29288 23-327)
Procedure: as §2, §5

[5] = Kcat/Km relative to pT = 1.0, BacTRAP
[6] = Kcat/Km relative to pT = 1.0, BoneTRAP

Compound | Ratio (BacTRAP) [1, 5] | Ratio Bone/Bac [2] | Ratio (BoneTRAP) [2, 6] | further results
N[C@@H](COP(=O)(O)O)C(=O)O [pS, phosphoserine] | 1.2 | 22 | 2.0 | 
N[C@@H](Cc1ccc(OP(=O)(O)O)cc1)C(=O)O [pY, phosphotyrosine] | 250 | 19 | 350 | 
O=[N+]([O-])c1ccc(OP(=O)(O)O)cc1 [pNPP, p-nitrophenylphosphate] |  | 8.8 |  | Km (BoneTRAP): 1000 µM; Ratio (BacTRAP) [1]: 1075; Ratio (BoneTRAP) [2]: 690; Km (BacTRAP + Cath. B): 900 µM; Km (BacTRAP + trypsin): 2100 µM; Km (BacTRAP + papain; pNPP hydrolysis, BacTRAP + papain): 1000 µM; increase in the ratio kcat/Km (BacTRAP + papain; papain-cleaved recombinant TRAP compared to untreated monomeric TRAP): 10 fold; decrease in the Km for pNPP (BacTRAP + papain; papain-cleaved vs untreated recombinant TRAP): 3 fold; optimal pH of pNPP hydrolysis (BacTRAP + papain; recombinant TRAP cleaved with papain): 5.5-6.0 pH; Km ([3]; pNPP hydrolysis, BacTRAP untreated): 3100 µM; pH-optimum of pNPP hydrolysis ([3]; recombinant TRAP as isolated): 4.5-5.0 pH
END[pY]INASL | 375 | 10 | 280 | 
C[C@@H](OP(=O)(O)O)[C@H](N)C(=O)O [pT, Phosphothreonine] | 1.0 | 14 | 1.0 | 
OPN: acidic phospho-seryl protein osteopontin purified from bovine milk | 1875 | 17 | 2360 | 
O=C1O[C@H]([C@@H](O)CO)C(O)=C1O [ascorbate, ascorbic acid] |  |  |  | effect of prolonged pre-incubation on TRAP activity (rat bone TRAP; ascorbate 1 mM in the presence of 0.1 mM FeCl3): time-dependent inactivation; time to maximal activation (rat bone TRAP; pre-incubation with ascorbate 1 mM, 0.1 mM FeCl3): ≤ 10 min; effect of prolonged pre-incubation on TRAP activity [4]: did not show this tendency for inactivation
FRI[pS]HELDS | 14 | 15 | 15 | 
DADE(pY)LIPQQG | 475 | 18 | 640 | 
EDEE[pS]EDEE | 50 | 4.2 | 15 | 
RRA[pT]VA | 2.8 | 5.0 | 10 | 
